Results taken from patent US20250101041A1, “POSITIVE ALLOSTERIC MODULATORS OF THE MUSCARINIC ACETYLCHOLINE RECEPTOR M4” (Vanderbilt University, priority 2022, published 2025).
Values belong to the compound of their own block, whether it stands above or below them.

Target: T1, human mAChR M4 (Homo sapiens, UniProt P08173)
T1 construct: expressed in transfected cells; host or cells: CHO-K1 (American Type Culture Collection), stably expressing hM4 and Gqi5
T1 sequence (P08173 1-479): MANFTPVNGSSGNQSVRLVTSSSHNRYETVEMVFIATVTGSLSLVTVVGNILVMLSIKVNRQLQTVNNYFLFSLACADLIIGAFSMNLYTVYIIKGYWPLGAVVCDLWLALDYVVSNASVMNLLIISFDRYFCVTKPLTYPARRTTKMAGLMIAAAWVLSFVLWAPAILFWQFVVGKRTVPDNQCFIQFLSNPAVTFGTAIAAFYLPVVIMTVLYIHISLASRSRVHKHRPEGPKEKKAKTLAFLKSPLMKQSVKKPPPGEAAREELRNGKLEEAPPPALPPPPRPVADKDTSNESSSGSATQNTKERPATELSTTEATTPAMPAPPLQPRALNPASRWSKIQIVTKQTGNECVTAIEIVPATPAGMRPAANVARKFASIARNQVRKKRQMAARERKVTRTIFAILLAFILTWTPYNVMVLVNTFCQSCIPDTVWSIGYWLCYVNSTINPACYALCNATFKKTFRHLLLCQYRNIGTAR
Assay: mAChR M4 cell-based functional assay: calcium mobilization (Fluo-4, FDSS), potentiation of EC20 acetylcholine response in hM4-Gqi5 CHO-K1 cells
Conditions: human M4; for Emax at 30 µM: CHO-K1, % ACh maximum at 30 μM; for EC50: potentiation of EC20 acetylcholine response, calcium mobilization
Protocol: Human and rat M4 cDNAs, along with the chimeric G protein Gqi5, were transfected into Chinese hamster ovary (CHO-K1) cells purchased from the American Type Culture Collection using Lipofectamine2000. hM4-Gqi5 cells were grown in Ham's F-12 medium containing 10% heat-inactivated fetal bovine serum (FBS), 20 mM HEPES, 50 μg/mL G418 sulfate, and 500 μg/mL Hygromycin B. rM4-Gqi5 cells were grown in DMEM containing 10% heat-inactivated FBS, 20 mM HEPES, 400 μg/mL G418 sulfate, and 500 μg/mL Hygromycin B.
For high throughput measurement of agonist-evoked increases in intracellular calcium, CHO-K1 cells stably expressing muscarinic receptors were plated in growth medium lacking G418 and hygromycin at 15,000 cells/20 μL/well in Greiner 384-well black-walled, tissue culture (TC)-treated, clear-bottom plates (VWR). Cells were incubated overnight at 37° C. and 5% CO2. The next day, cells were washed using an ELX 405 (BioTek) with assay buffer; the final volume was then aspirated to 20 μL. Next, 20 μL of a […] of Fluo-4/acetoxymethyl ester (Invitrogen, Carlsbad, CA), prepared as a 2.3 mM stock in DMSO and mixed in a 1:1 ratio with 10% (w/v) Pluronic F-127 and diluted in assay buffer, was added to the wells and the cell plates were incubated for 50 min at 37° C. and 5% CO2. Dye was removed by washing with the ELX 405 and the final volume was aspirated to 20 μL. Compound master plates were formatted in an 11 point concentration-response curve (CRC) format (1:3 dilutions) in 100% DMSO with a starting concentration of 10 mM using a BRAVO liquid handler (Agilent). Test compound CRCs were then transferred to daughter plates (240 nL) using the Echo acoustic plate reformatter (Labcyte, Sunnyvale, CA) and then diluted into assay buffer (40 μL) to a 2× stock using a Thermo Fisher Combi (Thermo Fisher Scientific, Waltham, MA).
Calcium flux was measured using the Functional Drug Screening System (FDSS) 6000 or 7000 (Hamamatsu Corporation, Tokyo, Japan) as an increase in the fluorescent static ratio. Compounds were applied to cells (20 μL, 2X) using the automated system of the FDSS at 2-4 seconds into the protocol and the data were collected at 1 Hz. At 144 seconds, 10 μL of an EC20 concentration of the muscarinic receptor agonist acetylcholine was added (5×), followed by the addition of 12 μL of an […] concentration of acetylcholine at the 230 second time point (5×). Agonist activity was analyzed as a concentration-dependent increase in calcium mobilization upon compound addition. Positive allosteric modulator activity was analyzed as a concentration-dependent increase in the EC20 acetylcholine response. Antagonist activity was analyzed as a concentration-dependent decrease in the EC20 acetylcholine response. Concentration-response curves were generated using a four-parameter logistical equation in XLFit curve fitting software (IDBS, Bridgewater, NJ) for Excel (Microsoft, Redmond, WA) or Prism (GraphPad Software, Inc., San Diego, CA).
Compounds were synthesized as described above. Activity (EC50 and Emax) was determined in the mAChR M4 cell-based functional assay as described above and the data are shown in Table 4. The compound number corresponds to the compound numbers used in Tables 1-3.

SMILES: Cc1cc2nc(C(=O)N3CCC(c4cccnc4)C3)cc(=O)n2nc1N1CCc2ncc(C(F)(F)F)cc2C1 (stereo not shown) [Compound 1-43, 8-methyl-2-(3-(pyridin-3-yl)pyrrolidine-1-carbonyl)-7-(3-(trifluoromethyl)-7,8-dihydro-1,6-naphthyridin-6(5H)-yl)-4H-pyrimido[1,2-b]pyridazin-4-one]
- Emax at 30 µM: 92%
- EC50: 0.612 µM

SMILES: Cc1cc2nc(C(=O)N3CC4(COC4)C3)cc(=O)n2nc1N1CCc2ncc(C(F)(F)F)cc2C1 [Compound 1-44, 8-methyl-2-(2-oxa-6-azaspiro[3.3]heptane-6-carbonyl)-7-(3-(trifluoromethyl)-7,8-dihydro-1,6-naphthyridin-6(5H)-yl)-4H-pyrimido[1,2-b]pyridazin-4-one]
- Emax at 30 µM: 92%
- EC50: 1.11 µM

SMILES: Cc1cc2nccc(=O)n2nc1N1CCc2ncc(-c3ccc(=O)n(C)c3)cc2C1 [Compound 1-49, 8-methyl-7-(3-(1-methyl-6-oxo-1,6-dihydropyridin-3-yl)-7,8-dihydro-1,6-naphthyridin-6(5H)-yl)-4H-pyrimido[1,2-b]pyridazin-4-one]
- Emax at 30 µM: 98%
- EC50: 2.34 µM

SMILES: COc1cnccc1-c1cnc2c(c1)CN(c1nn3c(=O)ccnc3cc1C)CC2 [Compound 1-50, 7-(3-(3-methoxypyridin-4-yl)-7,8-dihydro-1,6-naphthyridin-6(5H)-yl)-8-methyl-4H-pyrimido[1,2-b]pyridazin-4-one]
- Emax at 30 µM: 84%
- EC50: 0.685 µM

SMILES: Cc1cc2nccc(=O)n2nc1N1CCc2ncc(-c3ccc4nccn4c3)cc2C1 [Compound 1-53, 7-(3-(imidazo[1,2-a]pyridin-6-yl)-7,8-dihydro-1,6-naphthyridin-6(5H)-yl)-8-methyl-4H-pyrimido[1,2-b]pyridazin-4-one]
- Emax at 30 µM: 75%
- EC50: 0.699 µM

SMILES: Cc1cc2nccc(=O)n2nc1N1CCc2ncc(-c3ccnc(C4CC4)c3)cc2C1 [Compound 1-54, 7-(3-(2-cyclopropylpyridin-4-yl)-7,8-dihydro-1,6-naphthyridin-6(5H)-yl)-8-methyl-4H-pyrimido[1,2-b]pyridazin-4-one]
- Emax at 30 µM: 76%
- EC50: 0.479 µM

SMILES: Cc1cc2nc(C(=O)NC3CN(CC(F)(F)F)C3)cc(=O)n2nc1N1CCc2ncc(C(F)(F)F)cc2C1 [Compound 1-55, 8-methyl-4-oxo-N-(1-(2,2,2-trifluoroethyl)azetidin-3-yl)-7-(3-(trifluoromethyl)-7,8-dihydro-1,6-naphthyridin-6(5H)-yl)-4H-pyrimido[1,2-b]pyridazine-2-carboxamide]
- Emax at 30 µM: 94%
- EC50: 0.481 µM

SMILES: COc1cc(-c2cnc3c(c2)CN(c2nn4c(=O)ccnc4cc2C)CC3)c(Cl)cn1 [Compound 1-57, 7-(3-(5-chloro-2-methoxypyridin-4-yl)-7,8-dihydro-1,6-naphthyridin-6(5H)-yl)-8-methyl-4H-pyrimido[1,2-b]pyridazin-4-one]
- Emax at 30 µM: 70%
- EC50: 0.735 µM

Compounds with a lower EC50, results first:

- Emax at 30 µM: 83%
- EC50: 0.43 µM
SMILES: Cc1cc2nccc(=O)n2nc1N1CCc2ncc(-c3cccc4ncccc34)cc2C1 [Compound 1-41, 8-methyl-7-(3-(quinolin-5-yl)-7,8-dihydro-1,6-naphthyridin-6(5H)-yl)-4H-pyrimido[1,2-b]pyridazin-4-one]

- Emax at 30 µM: 88%
- EC50: 0.397 µM
SMILES: Cc1cc2nccc(=O)n2nc1N1CCc2ncc(-c3cccnc3F)cc2C1 [Compound 1-58, 7-(3-(2-fluoropyridin-3-yl)-7,8-dihydro-1,6-naphthyridin-6(5H)-yl)-8-methyl-4H-pyrimido[1,2-b]pyridazin-4-one]

- Emax at 30 µM: 72%
- EC50: 0.321 µM
SMILES: Cc1ccc2c(-c3cnc4c(c3)CN(c3nn5c(=O)ccnc5cc3C)CC4)cccc2n1 [Compound 1-48, 8-methyl-7-(3-(2-methylquinolin-5-yl)-7,8-dihydro-1,6-naphthyridin-6(5H)-yl)-4H-pyrimido[1,2-b]pyridazin-4-one]

- Emax at 30 µM: 85%
- EC50: 0.293 µM
SMILES: COc1cc(-c2cnc3c(c2)CN(c2nn4c(=O)ccnc4cc2C)CC3)ccc1F [Compound 1-51, 7-(3-(4-fluoro-3-methoxyphenyl)-7,8-dihydro-1,6-naphthyridin-6(5H)-yl)-8-methyl-4H-pyrimido[1,2-b]pyridazin-4-one]

- Emax at 30 µM: 102%
- EC50: 0.281 µM
SMILES: Cc1cc2nc(C(=O)N3CC(C)C3)cc(=O)n2nc1N1CCc2ncc(C(F)(F)F)cc2C1 [Compound 1-56, 8-methyl-2-(3-methylazetidine-1-carbonyl)-7-(3-(trifluoromethyl)-7,8-dihydro-1,6-naphthyridin-6(5H)-yl)-4H-pyrimido[1,2-b]pyridazin-4-one]

- Emax at 30 µM: 47%
- EC50: 0.232 µM
SMILES: COc1cncc(-c2cnc3c(c2)CN(c2nn4c(=O)ccnc4cc2C)CC3)c1 [Compound 1-52, 7-(3-(5-methoxypyridin-3-yl)-7,8-dihydro-1,6-naphthyridin-6(5H)-yl)-8-methyl-4H-pyrimido[1,2-b]pyridazin-4-one]

- Emax at 30 µM: 86%
- EC50: 0.206 µM
SMILES: Cc1c(N2CCc3ncc(C(F)(F)F)cc3C2)nn2c(=O)cc(C(F)(F)F)nc2c1C [Compound 1-39, 8,9-dimethyl-2-(trifluoromethyl)-7-(3-(trifluoromethyl)-7,8-dihydro-1,6-naphthyridin-6(5H)-yl)-4H-pyrimido[1,2-b]pyridazin-4-one]

- Emax at 30 µM: 87%
- EC50: 0.2 µM
SMILES: Cc1cc2nc(C(=O)NCc3cncs3)cc(=O)n2nc1N1CCc2ncc(C(F)(F)F)cc2C1 [Compound 1-42, 8-methyl-4-oxo-N-(thiazol-5-ylmethyl)-7-(3-(trifluoromethyl)-7,8-dihydro-1,6-naphthyridin-6(5H)-yl)-4H-pyrimido[1,2-b]pyridazine-2-carboxamide]

- Emax at 30 µM: 100%
- EC50: 0.167 µM
SMILES: Cc1cc2nc(C(=O)N3CC(C)(F)C3)cc(=O)n2nc1N1CCc2ncc(C(F)(F)F)cc2C1 [Compound 1-45, 2-(3-fluoro-3-methylazetidine-1-carbonyl)-8-methyl-7-(3-(trifluoromethyl)-7,8-dihydro-1,6-naphthyridin-6(5H)-yl)-4H-pyrimido[1,2-b]pyridazin-4-one]

- Emax at 30 µM: 103%
- EC50: 0.144 µM
SMILES: COC1CN(C(=O)c2cc(=O)n3nc(N4CCc5ncc(C(F)(F)F)cc5C4)c(C)cc3n2)C1 [Compound 1-47, 2-(3-methoxyazetidine-1-carbonyl)-8-methyl-7-(3-(trifluoromethyl)-7,8-dihydro-1,6-naphthyridin-6(5H)-yl)-4H-pyrimido[1,2-b]pyridazin-4-one]

- Emax at 30 µM: 99%
- EC50: 0.118 µM
SMILES: Cc1cc2nc(C(=O)NC3(C#N)CC3)cc(=O)n2nc1N1CCc2ncc(C(F)(F)F)cc2C1 [Compound 1-46, N-(1-cyanocyclopropyl)-8-methyl-4-oxo-7-(3-(trifluoromethyl)-7,8-dihydro-1,6-naphthyridin-6(5H)-yl)-4H-pyrimido[1,2-b]pyridazine-2-carboxamide]

- Emax at 30 µM: 93%
- EC50: 0.038 µM
SMILES: Cc1c(N2CCc3ncc(C(F)(F)F)cc3C2)nn2c(=O)cc(C(F)F)nc2c1C [Compound 1-40, 2-(difluoromethyl)-8,9-dimethyl-7-(3-(trifluoromethyl)-7,8-dihydro-1,6-naphthyridin-6(5H)-yl)-4H-pyrimido[1,2-b]pyridazin-4-one]
